The values that follow are results of earlier work, collected in US11730740B2, “Laureth-4 containing topical formulations” (ARCUTIS BIOTHERAPEUTICS, INC., priority 2020, dated 2023).

One data set addresses JAK 1 (Homo sapiens, UniProt P23458). As to conditions: statement in words.
The conditions of data set [1]: 10% adjuvant in propylene glycol; infinite dosing 278 μl/cm^2; PG alone control 1.6±0.4.
For data set [2] the following is noted: 10% w/w surfactant in white petrolatum with 10% salicylic acid and 10% DMSO; 5.0 grams on 6.4×12.7 cm^2 skin; 8 hr.

Chain of JAK 1 (P23458 whole entry, species assumed): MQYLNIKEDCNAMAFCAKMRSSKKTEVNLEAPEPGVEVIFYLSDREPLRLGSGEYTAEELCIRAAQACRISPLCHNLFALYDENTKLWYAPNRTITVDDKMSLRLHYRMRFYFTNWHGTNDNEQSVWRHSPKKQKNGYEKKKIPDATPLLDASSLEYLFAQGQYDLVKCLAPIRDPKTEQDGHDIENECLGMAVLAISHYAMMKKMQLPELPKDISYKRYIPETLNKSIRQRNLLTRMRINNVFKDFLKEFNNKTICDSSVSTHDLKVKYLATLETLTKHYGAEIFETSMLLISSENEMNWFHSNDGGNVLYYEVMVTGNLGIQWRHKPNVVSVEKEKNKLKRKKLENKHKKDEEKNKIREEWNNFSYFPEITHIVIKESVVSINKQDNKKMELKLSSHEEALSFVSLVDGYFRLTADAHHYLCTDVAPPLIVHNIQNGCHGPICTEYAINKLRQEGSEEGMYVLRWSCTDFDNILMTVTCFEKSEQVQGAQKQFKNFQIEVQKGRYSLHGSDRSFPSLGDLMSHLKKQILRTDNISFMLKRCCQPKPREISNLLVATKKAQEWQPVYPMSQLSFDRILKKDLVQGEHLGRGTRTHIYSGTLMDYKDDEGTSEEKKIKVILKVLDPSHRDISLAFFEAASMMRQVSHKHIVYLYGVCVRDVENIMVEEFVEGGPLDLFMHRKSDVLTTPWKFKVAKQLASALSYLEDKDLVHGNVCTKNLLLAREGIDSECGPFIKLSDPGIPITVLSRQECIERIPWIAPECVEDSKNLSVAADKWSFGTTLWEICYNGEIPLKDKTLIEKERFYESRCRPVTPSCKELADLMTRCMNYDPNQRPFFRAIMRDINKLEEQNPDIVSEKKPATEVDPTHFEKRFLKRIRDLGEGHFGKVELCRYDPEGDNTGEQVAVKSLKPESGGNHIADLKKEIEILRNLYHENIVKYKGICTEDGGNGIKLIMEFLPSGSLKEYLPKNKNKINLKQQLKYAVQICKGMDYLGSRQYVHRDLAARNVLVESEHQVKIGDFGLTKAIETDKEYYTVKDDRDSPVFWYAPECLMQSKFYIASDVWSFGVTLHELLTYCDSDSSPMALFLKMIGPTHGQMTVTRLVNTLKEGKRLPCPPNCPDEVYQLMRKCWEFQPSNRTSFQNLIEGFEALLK

As for `CCC[C@@H]1C[C@@H](C(=O)N[C@@H]([C@H]2O[C@H](SC)[C@H](OP(=O)(O)O)[C@@H](O)[C@H]2O)[C@H](C)Cl)N(C)C1` [Clindamycin phosphate], the solubility in water entry (without the addition of laureth-4) is listed as “readily soluble”.

Consider `COc1nsc(NC(=O)N2C[C@H]3C[C@H](N(C)c4ncnc5[nH]ccc45)C[C@H]3C2)n1` [SHR0302, (3 aR,5 S,6aS)—N-(3-methoxyl-1,2,4-thiadiazol-5-yl)-5-(methyl(7H-pyrrolo[2,3-d]pyrimidin-4-yl)amino)hexahydrocyclopenta[c]pyrrole-2(1H)-carboxamide], for which, at JAK 1, the “inhibition of JAK 1” value was “potent” and the “selectivity for JAK1 over JAK2” value is “high”.

On to `CCCCCCCCCC(=O)O` [capric acid], for which, in data set [1], the naloxone flux is listed as 187.9±67.5 μg/cm^2-hr.

As for `CCCCCCCCCCCCOCCOCCOCCOCCO` [laureth-4, tetraethylene glycol monododecyl ether], in data set [1], the naloxone flux was 34.5±8.3 μg/cm^2-hr. Moreover, the “percutaneous absorption of salicylic acid” value (“percutaneous absorption” below) in data set [2] is listed as “increased significantly”. On to `CCCCCCCCCCCC(=O)O` [lauric acid], for which the naloxone flux in data set [1] is recorded as 235.2 μg/cm^2-hr. Turning to `CCCCCCCCCCCCO` [lauryl alcohol], the naloxone flux in data set [1] is 45.8 μg/cm^2-hr. Turning to `CC/C=C\C/C=C\C/C=C\CCCCCCCC(=O)O` [linolenic acid 18:2, linolenic acid], in data set [1], the naloxone flux is given as 103.0 μg/cm^2-hr. Regarding `CC/C=C\C/C=C\C/C=C\CCCCCCCCO` [linolenyl alcohol], in data set [1], the naloxone flux is 116.3 μg/cm^2-hr.

On to `CCCCCCCCC(=O)O` [pelargonic acid], for which, in data set [1], the naloxone flux is on record as 201.9±65.4 μg/cm^2-hr. Consider `CC1=C(/C=C/C(C)=C/C=C/C(C)=C/C(=O)O)C(C)(C)CCC1` [tretinoin], for which, where the note is “with laureth-4 (3%) and propylene glycol”, the “solubility of tretinoin in VELTIN Gel” value is on record as 0.025%. In the case of polyoxyethylene 2 oleyl ether, the “percutaneous absorption” value in data set [2] is “increased significantly”. As to propylene glycol laurate, the naloxone flux in data set [1] was 43.8±5.5 μg/cm^2-hr.

For sorbitan monopalmitate, in data set [2], the “percutaneous absorption” value is “increased significantly”. With sorbitan trioleate, the “percutaneous absorption” value in data set [2] is recorded as “increased significantly”.
